Measurements as given in patent US12178205B2, “Systems and methods for storing and preserving implantable devices” (Rutgers, The State University of New Jersey, priority 2016, dated 2024).

Test system: Staphylococcus aureus (ATCC 6538)
Assay: Antimicrobial effectiveness of zinc chloride on Staphylococcus aureus suspension (exposure, neutralization, assay for survivors)
Assay type: cell-based
Settings: for CFU/mL of Survivors / Log10 Survivors: 37±1° C.; for Number of Survivors: duplicate plate counts; for Percent Reduction: vs test population control 4.68 × 10^5 CFU/mL; for Log10 Reduction: vs test population control Log10 5.67
Method: (§1) A suspension of test organism Staphylococcus aureus (ATCC 6538) was obtained by adding colonies on tryptic soy agar and 5% Sheep Blood (BAP) with incubation parameters of 35° C.-37° C., aerobic in 0.85% saline to match a 3.0 McFarland standard. The suspension was exposed to a test substance of zinc chloride at specified concentrations of 0.1%, 0.3%, and 0.5% from a 1% stock solution at specified exposure times of 10 minutes, 2 hours, 6 hours, and 24 hours at a temperature of 37±1° C. (37.2° C.). Latheen broth and 1% sodium bicarbonate (9.9 mL) were used as a neutralizer. After exposure, an aliquot of the suspension was transferred to the neutralizer and was assayed for survivors.
as §1

[1] = exposure 10 minutes, dilution (volume plated) 10^0 (0.100 mL)
[2] = exposure 10 minutes, dilution (volume plated) 10^0 (1.00 mL)

SMILES	CFU/mL of Survivors (exposure 10 minutes)	Log10 Survivors (exposure 10 minutes)	Number of Survivors [1]	Number of Survivors [2]	Number of Survivors (exposure 10 minutes, dilution (volume plated) 10^1 (0.100 mL))	Percent Reduction (exposure 10 minutes)	Log10 Reduction (exposure 10 minutes)	CFU/mL of Survivors (exposure 2 hours)	Log10 Survivors (exposure 2 hours)	Percent Reduction (exposure 2 hours)	Log10 Reduction (exposure 2 hours)	CFU/mL of Survivors (exposure 6 hours)	Log10 Survivors (exposure 6 hours)	Percent Reduction (exposure 6 hours)	Log10 Reduction (exposure 6 hours)	CFU/mL of Survivors (exposure 24 hours)	Log10 Survivors (exposure 24 hours)	Percent Reduction (exposure 24 hours)	Log10 Reduction (exposure 24 hours)
[Cl-].[Cl-].[Zn+2] [0.1% Zinc Chloride, zinc chloride]	6.8 × 10^5 CFU/mL	5.83	T, T	T, T	T, T	None	None	4.9 × 10^2 CFU/mL	2.69	>99.8%	2.98	2.3 × 10^2 CFU/mL	2.36	>99.9%	3.31	4 × 10^1 CFU/mL	1.60	99.99%	4.07
[Cl-].[Cl-].[Zn+2] [0.3% Zinc Chloride, zinc chloride]	5.9 × 10^4 CFU/mL	4.77	T, T	T, T		87.4%	0.90	1 × 10^1 CFU/mL	1.00	>99.99%	4.67	<5 CFU/mL	<0.70	>99.99%	>4.97	<5 CFU/mL	<0.70	>99.99%	>4.97
[Cl-].[Cl-].[Zn+2] [0.5% Zinc Chloride, zinc chloride]	2.9 × 10^4 CFU/mL	4.46	T, T	T, T		93.8%	1.21	1 × 10^1 CFU/mL	1.00	>99.99%	4.67	<5 CFU/mL	<0.70	>99.99%	>4.97	<5 CFU/mL	<0.70	>99.99%	>4.97
